# According to patent publication US20260007601A1, “IONIZABLE CATIONIC LIPID COMPOUND AND COMPOSITION FOR DELIVERING NUCLEIC ACID AND USE THEREOF” (BEIJING YOUCAREKECHUANG PHARMACEUTICAL TECHNOLOGY CO., LTD., priority 2023, published 2026):
# Several values for one entry are separate records, joined by “and”; a condition that tells them apart may be missing. Identical values can stand only once.
# What was measured:
# 293T cells [1] = assay: Cell survival rate assay (CCK-8); type: cell-based
# Summary of the method: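 293T cells seeded at 10,000 per well and grown overnight, then exposed for 24 h to LNPs (cationic/neutral/structured/PEG lipids 49:10:39.5:1.5) carrying 1.5 μg Fluc-mRNA, or Lipofectamine 3000. Viability read by CCK-8, 1 h incubation, absorbance at 450 nm.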
# [2] = Particle size and polydispersity index (PDI) of nanolipid particles, dynamic light scattering; type: physicochemical; conditions: LNP formulation prepared from the named cationic lipid, 25° C
# Method: The particle size and polydispersity index (PDI) were determined by dynamic light scattering method using a Malvern laser particle size analyzer. 10 μL of liposome solution was diluted to 1 mL with RNase-free deionized water and added to a sample pool. Each sample was measured three times. The measurement conditions were: 90° scattering angle, 25° C.
# 293T cells [3] = assay: Fluorescence detection of Fluc-mRNA (cell transfection efficiency of LNP formulations); type: cell-based
# Summary of the method: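 293T cells at 10,000 per well, adhered overnight, then given LNPs carrying 0.3 μg Fluc-mRNA (cationic:neutral:structured:polymer-conjugated lipid 49:10:39.5:1.5 molar). After 24 h, luciferase signal read with luciferase kit reagents on an IVIS imaging system as transfection efficiency.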
# female BALB/C mice = assay: Mouse in vivo imaging of Fluc-mRNA LNP formulations; design: average radiation intensity (mRNA expression): unit not given here; conditions: for average radiation intensity (mRNA expression): 10 μg Fluc-mRNA LNP intramuscularly
# Summary of the method: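 Female BALB/C mice (4–6 weeks, 17–19 g) received LNP carrying 10 μg Fluc-mRNA intramuscularly. Imaging substrate given intraperitoneally at 6 h, 24 h, 48 h and 7 d; after 5 min free movement, average radiance read by IVIS Spectrum imaging.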
smiles,measurement,setting,value
CCCCCCCCCCCOC(=O)CCCCCN(CCCCCCCC(=O)OCC(CCCCCCCC)CCCCCCCC)CCN(C)CCO [YK-202],Cell survival rate,"293T cells [1]; LNP containing 1.5 μg Fluc-mRNA, 24 hours, CCK-8",76.81%
same,cell survival rate higher (cytotoxicity reduced) compared with YK-221,293T cells [1]; difference of rates,55% and 55.86%
same,cell survival rate higher (toxicity lower) than that of YK-204,293T cells [1]; difference of rates,34.24%
same,cell survival rate higher (toxicity lower) than that of YK-225,293T cells [1]; difference of rates,33.40%
same,cell survival rate higher than that of ALC-0315,293T cells [1]; difference of rates,26.85%
same,cell survival rate higher than that of HHMA,293T cells [1]; difference of rates,11.25%
same,cell survival rate higher than that of Lipofectamine 3000,293T cells [1]; difference of rates,53.76%
same,cell survival rate higher than that of SM-102,293T cells [1]; difference of rates,8.26%
same,cell survival rate higher than that of YK-203,293T cells [1]; difference of rates,41.25%
same,cell survival rate higher than that of YK-205,293T cells [1]; difference of rates,17.89%
same,cell survival rate higher than that of YK-208,293T cells [1]; difference of rates,30.13%
same,cell survival rate higher than that of YK-210,293T cells [1]; difference of rates,38.43%
same,cell survival rate higher than that of YK-211,293T cells [1]; difference of rates,24.51%
same,cell survival rate higher than that of YK-212,293T cells [1]; difference of rates,41.55%
same,cell survival rate higher than that of YK-213,293T cells [1]; difference of rates,35.37%
same,cell survival rate higher than that of YK-214,293T cells [1]; difference of rates,51.23% and 50%
same,cell survival rate higher than that of YK-215,293T cells [1]; difference of rates,32.22%
same,cell survival rate higher than that of YK-216,293T cells [1]; difference of rates,31.01%
same,cell survival rate higher than that of YK-217,293T cells [1]; difference of rates,34.54%
same,cell survival rate higher than that of YK-219,293T cells [1]; difference of rates,18.20%
same,cell survival rate higher than that of YK-220,293T cells [1]; difference of rates,17.82%
same,cell survival rate higher than that of YK-222,293T cells [1]; difference of rates,43.06%
same,cell survival rate higher than that of YK-223,293T cells [1]; difference of rates,40.17%
same,cell survival rate higher than that of YK-224,293T cells [1]; difference of rates,53.34%
same,cell survival rate higher than that of YK-226,293T cells [1]; difference of rates,48.91%
same,cell survival rate higher than that of compound 21,293T cells [1]; difference of rates,7.79%
same,cell survival rate higher than that of compound 23,293T cells [1]; difference of rates,6.71%
same,PDI,[2],23.4%
same,Particle size,[2],173 nm
same,"RLU / cell transfection efficiency, times that of ALC-0315",293T cells [3]; Fluc-mRNA LNP,13.95 times
same,"RLU / cell transfection efficiency, times that of HHMA",293T cells [3]; Fluc-mRNA LNP,14.27 times
same,"RLU / cell transfection efficiency, times that of Lipofectamine 3000",293T cells [3]; Fluc-mRNA LNP,24.94 times
same,"RLU / cell transfection efficiency, times that of YK-009",293T cells [3]; Fluc-mRNA LNP,5.84 times
same,"RLU / cell transfection efficiency, times that of compound 21",293T cells [3]; Fluc-mRNA LNP,21.08 times and 21 times
same,"RLU / cell transfection efficiency, times that of compound 23",293T cells [3]; Fluc-mRNA LNP,22.49 times and 22 times
same,"cell transfection efficiency, times that of YK-223",293T cells [3]; Fluc-mRNA LNP,399.37 times
same,"cell transfection efficiency, times that of YK-224",293T cells [3]; Fluc-mRNA LNP,340.35 times
same,"cell transfection efficiency, times that of YK-226",293T cells [3]; Fluc-mRNA LNP,519.55 times
same,"fluorescence absorption value / cell transfection efficiency, times that of YK-203",293T cells [3]; Fluc-mRNA LNP,7.74 times
same,"fluorescence absorption value / cell transfection efficiency, times that of YK-204",293T cells [3]; Fluc-mRNA LNP,82 times and 82.30 times
same,"fluorescence absorption value / cell transfection efficiency, times that of YK-205",293T cells [3]; Fluc-mRNA LNP,29.11 times
same,"fluorescence absorption value / cell transfection efficiency, times that of YK-208",293T cells [3]; Fluc-mRNA LNP,7.76 times
same,"fluorescence absorption value / cell transfection efficiency, times that of YK-210",293T cells [3]; Fluc-mRNA LNP,6.47 times
same,"fluorescence absorption value / cell transfection efficiency, times that of YK-211",293T cells [3]; Fluc-mRNA LNP,21.87 times
same,"fluorescence absorption value / cell transfection efficiency, times that of YK-212",293T cells [3]; Fluc-mRNA LNP,7.66 times
same,"fluorescence absorption value / cell transfection efficiency, times that of YK-213",293T cells [3]; Fluc-mRNA LNP,21.95 times
same,"fluorescence absorption value / cell transfection efficiency, times that of YK-214",293T cells [3]; Fluc-mRNA LNP,6.54 times
same,"fluorescence absorption value / cell transfection efficiency, times that of YK-215",293T cells [3]; Fluc-mRNA LNP,30.53 times
same,"fluorescence absorption value / cell transfection efficiency, times that of YK-216",293T cells [3]; Fluc-mRNA LNP,13.14 times
same,"fluorescence absorption value / cell transfection efficiency, times that of YK-217",293T cells [3]; Fluc-mRNA LNP,416.94 times
same,"fluorescence absorption value / cell transfection efficiency, times that of YK-218",293T cells [3]; Fluc-mRNA LNP,49.35 times
same,"fluorescence absorption value / cell transfection efficiency, times that of YK-219",293T cells [3]; Fluc-mRNA LNP,19.89 times
same,"fluorescence absorption value / cell transfection efficiency, times that of YK-220",293T cells [3]; Fluc-mRNA LNP,138.44 times
same,"fluorescence absorption value, times that of YK-222",293T cells [3]; Fluc-mRNA LNP,49.41 times
same,Relative light unit (RLU),"293T cells [3]; LNP containing 0.3 μg Fluc-mRNA, 24 hours",29957419 RLU
same,Multiples of values that equivalent to YK-201,293T cells [3]; RLU of YK-201 / RLU of the named lipid,0.95
same,Multiples of values that equivalent to YK-202,293T cells [3]; RLU of YK-202 / RLU of the named lipid,1.00
same,"average radiation intensity, times that of ALC-0315",female BALB/C mice; 6 h,3.48 times
same,"average radiation intensity, times that of HHMA",female BALB/C mice; 6 h,4.59 times
same,"average radiation intensity, times that of SM-102",female BALB/C mice; 6 h,4.32 times
same,"average radiation intensity, times that of compound 21",female BALB/C mice; 6 h,4.89 times
same,"average radiation intensity, times that of compound 23",female BALB/C mice; 6 h,4.94 times
same,"mRNA expression level, times that of YK-204",female BALB/C mice; 6 h,83.29 times
same,"mRNA expression level, times that of YK-223",female BALB/C mice; 6 h,283.49 times
same,average radiation intensity (mRNA expression),female BALB/C mice; 6 h,2935500
same,"expression level, times that of YK-215",female BALB/C mice; 6 hours,58.06 times
same,"expression level, times that of YK-217",female BALB/C mice; 6 hours,119.40 times
same,"average radiation intensity, times that of ALC-0315",female BALB/C mice; 24 h,11.84 times
same,"average radiation intensity, times that of HHMA",female BALB/C mice; 24 h,19.69 times
same,"average radiation intensity, times that of SM-102",female BALB/C mice; 24 h,18.64 times
same,"average radiation intensity, times that of compound 21",female BALB/C mice; 24 h,19.99 times
same,"average radiation intensity, times that of compound 23",female BALB/C mice; 24 h,19.47 times
same,"mRNA expression level, times that of YK-204",female BALB/C mice; 24 h,412.78 times
same,"mRNA expression level, times that of YK-223",female BALB/C mice; 24 h,1208.76 times
same,average radiation intensity (mRNA expression),female BALB/C mice; 24 h,2158840
same,"expression level, times that of YK-215",female BALB/C mice; 24 hours,316.78 times
same,"expression level, times that of YK-217",female BALB/C mice; 24 hours,814.66 times
same,"average radiation intensity, times that of ALC-0315",female BALB/C mice; 48 h,19.80 times
same,"average radiation intensity, times that of HHMA",female BALB/C mice; 48 h,25.64 times
same,"average radiation intensity, times that of SM-102",female BALB/C mice; 48 h,24.71 times
same,"average radiation intensity, times that of compound 21",female BALB/C mice; 48 h,25.15 times
same,"average radiation intensity, times that of compound 23",female BALB/C mice; 48 h,23.54 times
same,"mRNA expression level, times that of YK-204",female BALB/C mice; 48 h,309.43 times
same,"mRNA expression level, times that of YK-223",female BALB/C mice; 48 h,1113.57 times
same,average radiation intensity (mRNA expression),female BALB/C mice; 48 h,755000
same,"expression level, times that of YK-215",female BALB/C mice; 48 hours,207.42 times
same,"expression level, times that of YK-217",female BALB/C mice; 48 hours,737.30 times
same,"average radiation intensity, times that of ALC-0315",female BALB/C mice; 7 d,5.09 times
same,"average radiation intensity, times that of HHMA",female BALB/C mice; 7 d,6.31 times
same,"average radiation intensity, times that of SM-102",female BALB/C mice; 7 d,5.68 times
same,"average radiation intensity, times that of compound 21",female BALB/C mice; 7 d,5.49 times
same,"average radiation intensity, times that of compound 23",female BALB/C mice; 7 d,5.75 times
same,"expression level, times that of YK-215",female BALB/C mice; 7 d,32.87 times
same,"expression level, times that of YK-217",female BALB/C mice; 7 d,64.10 times
same,"mRNA expression level, times that of YK-204",female BALB/C mice; 7 d,44.46 times
same,"mRNA expression level, times that of YK-223",female BALB/C mice; 7 d,76.19 times
same,average radiation intensity (mRNA expression),female BALB/C mice; 7 d,33524
same,"mRNA expression level in mice can reach, times that of SM-102",female BALB/C mice; time point not stated,24 times
